# Data as given in US8859558B2, “Pyrazinyl carboxamides as fungicides” (Dow AgroSciences, LLC., priority 2010, dated 2014).
# How the values were obtained:
# [1] = test system: Mycosphaerella graminicola; anamorph: Septoria tritici (SEPTTR); experiment: Fungicidal activity, leaf blotch of wheat (SEPTTR), greenhouse wheat plants; assay type: in vivo; settings: wheat (variety Yuma)
# Protocol: Leaf Blotch of Wheat (Mycosphaerella graminicola; anamorph: Septoria tritici; Bayer code […]): Wheat plants (variety Yuma) were grown from seed in a greenhouse in 50% mineral soil/50% soil-less Metro mix until the first leaf was fully emerged, with 7-10 seedlings per pot. These plants were inoculated with an aqueous spore suspension of […] either prior to or after fungicide treatments. After inoculation the plants were kept in 100% relative humidity (one day in a dark dew chamber followed by two to three days in a lighted dew chamber) to permit spores to germinate and infect the leaf. The plants were then transferred to a greenhouse for disease to develop. The following table presents the activity of typical compounds of the present disclosure when evaluated in these experiments. The effectiveness of the test compounds in controlling disease was determined by assessing the severity of disease on treated plants, then converting the severity to percent control based on the level of disease on untreated, inoculated plants. • In each case of Table II the rating scale is as follows: […]
# [2] = test system: Puccinia recondita f. sp. tritici (PUCCRT); experiment: Fungicidal activity, wheat leaf rust (PUCCRT), greenhouse wheat plants; assay type: in vivo; settings: One-Day Protectant, wheat (variety Yuma)
# [3] = test system: Cochliobolus sativus (COCHSA); experiment: Fungicidal activity, spot blotch of barley (COCHSA), greenhouse barley plants; assay type: in vivo; settings: One-Day Protectant, barley (variety Harrington)
# Protocol: Spot Blotch of Barley (Cochliobolus sativus: anamorph Helmithosporium sativum; Bayer code COCHSA): Barley plants (variety Harrington) were grown from seed in a greenhouse in soil-less Metro mix until the first leaf was fully emerged, with 7-10 seedlings per pot. These plants were inoculated with an aqueous spore suspension of COCHSA prior to fungicide treatments. After inoculation the plants were kept in 100% relative humidity one day to permit spores to germinate and infect the leaf. The plants were then transferred to a greenhouse for disease to develop. The following table presents the activity of typical compounds of the present disclosure when evaluated in these experiments. The effectiveness of the test compounds in controlling disease was determined by assessing the severity of disease on treated plants, then converting the severity to percent control based on the level of disease on untreated, inoculated plants. • In each case of Table II the rating scale is as follows: […]
smiles,measurement,setting,value
"CC(C)C1C2CCC1c1c(NC(=O)c3nccnc3C(F)(F)F)cccc12 (centres unmarked) [Compound 9, 3-Trifluoromethyl-pyrazine-2-carboxylic acid (9-isopropyl-1,2,3,4-tetrahydro-1,4-methano-naphthalen-5-yl)-amide]",SEPTTR 200 PPM 1DP (disease control rating),[1]; One-Day Protectant,A (76-100)
same,SEPTTR 200 PPM 3DC (disease control rating),[1]; Three-Day Curative,B (51-75)
same,PUCCRT 200 PPM 1DP (disease control rating),[2],A (76-100)
same,COCHSA 200 PPM 1DP (disease control rating),[3],A (76-100)
same,melting point,,173 to 177 °C
